Results: ChEMBL document CHEMBL1201862, “PubChem BioAssay data set” (2004)
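Cultured in 96-well plates, cells were exposed to test compound for 48 hours across five concentrations. GI50 marks 50% less growth.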 The source made the active and inactive calls. Rule as the data show it: active = GI50 up to about 1.1 µM and inactive = higher.

How the values were obtained:
Assay in all cases: NCI anticancer screen, dose series, 48 h
786-0 = tested on: 786-0
A549 = tested on: A549
ACHN = tested on: ACHN
HCT-116 = tested on: HCT-116
HOP-62 = tested on: HOP-62
M14 = tested on: M14
NCI-H23 = tested on: NCI-H23
NCI-H522 = tested on: NCI-H522
OVCAR-5 = tested on: OVCAR-5
RPMI-8226 = tested on: RPMI-8226
SK-MEL-5 = tested on: SK-MEL-5
SK-OV-3 = tested on: SK-OV-3
SR = tested on: SR
SW-620 = tested on: SW-620
UACC-62 = tested on: UACC-62
OVCAR-4 = tested on: OVCAR-4
HCC 2998 = tested on: HCC 2998

Measured: GI50

CCOC(=O)Cn1c(=O)n(C)c(=O)c2c1ncn2Cc1ccccc1
inactive: 786-0 > 100 µM | A549 > 100 µM | ACHN > 100 µM | HCT-116 > 100 µM | HOP-62 > 100 µM | M14 > 100 µM | NCI-H23 > 100 µM | NCI-H522 > 100 µM | OVCAR-5 > 100 µM | RPMI-8226 > 100 µM | SK-MEL-5 > 100 µM | SK-OV-3 > 100 µM | SR > 100 µM | SW-620 > 100 µM | UACC-62 > 100 µM

CC(Oc1ccc(OCC2CCCCC2)cc1)C(=O)NCCO (stereo not drawn)
inactive: 786-0 > 100 µM | A549 > 100 µM | ACHN > 100 µM | HCT-116 > 100 µM | M14 > 100 µM | NCI-H23 15.7 µM | NCI-H522 87.1 µM | OVCAR-4 > 100 µM | SK-MEL-5 > 100 µM | SK-OV-3 > 100 µM | UACC-62 > 100 µM

C=CCCc1cc(OC)ccc1CN(C)C(C)(C)CO
inactive: 786-0 > 100 µM | A549 > 100 µM | ACHN > 100 µM | HCT-116 > 100 µM | HOP-62 > 100 µM | NCI-H23 > 100 µM | OVCAR-4 > 100 µM | OVCAR-5 > 100 µM | RPMI-8226 > 100 µM | SK-MEL-5 > 100 µM | SR > 100 µM | SW-620 > 100 µM | UACC-62 > 100 µM

Sc1nnc(COc2ccc(Cl)cc2)[nH]1
inactive: 786-0 > 100 µM | A549 > 100 µM | ACHN > 100 µM | HCC 2998 > 100 µM | HCT-116 > 100 µM | HOP-62 > 100 µM | M14 > 100 µM | NCI-H23 > 100 µM | NCI-H522 > 100 µM | OVCAR-4 > 100 µM | OVCAR-5 > 100 µM | RPMI-8226 > 100 µM | SK-MEL-5 > 100 µM | SK-OV-3 > 100 µM | SW-620 > 100 µM | UACC-62 > 100 µM

O=C(CCc1n[nH]c(=S)o1)Nc1ccccc1C(F)(F)F
inactive: 786-0 > 100 µM | ACHN > 100 µM | HCC 2998 > 100 µM | HCT-116 > 10 µM | HOP-62 > 100 µM | M14 > 100 µM | NCI-H23 > 100 µM | NCI-H522 > 100 µM | OVCAR-4 > 100 µM | OVCAR-5 > 100 µM | RPMI-8226 25.9 µM | SK-MEL-5 > 100 µM | SK-OV-3 > 100 µM | SW-620 18.2 µM | UACC-62 > 100 µM

S=c1[nH]c2ccc(Br)cc2c(=S)n1-c1ccccc1
inactive: 786-0 24.5 µM | A549 26.7 µM | ACHN 20.3 µM | HCC 2998 13.7 µM | HCT-116 8.75 µM | HOP-62 24.4 µM | M14 20.7 µM | NCI-H23 10.7 µM | OVCAR-4 28.7 µM | OVCAR-5 32.5 µM | RPMI-8226 8.26 µM | SK-MEL-5 16.4 µM | SK-OV-3 43.4 µM | SW-620 32.7 µM | UACC-62 10.5 µM

CC(C)=Cc1cc(C(=O)NCCNC(=O)c2cc(C=C(C)C)nc(NC#N)n2)nc(NC#N)n1
inactive: 786-0 > 100 µM | A549 > 100 µM | ACHN > 100 µM | HCC 2998 > 100 µM | HCT-116 > 100 µM | HOP-62 > 100 µM | M14 > 100 µM | NCI-H23 > 100 µM | NCI-H522 > 100 µM | OVCAR-4 > 100 µM | OVCAR-5 > 100 µM | RPMI-8226 > 100 µM | SK-MEL-5 > 100 µM | SK-OV-3 > 100 µM | SW-620 > 100 µM | UACC-62 > 100 µM

CC(C)C(Sc1nc(-c2ccccc2)c(-c2ccccc2)[nH]1)C(=O)NN (stereo not drawn)
inactive: 786-0 > 100 µM | A549 > 100 µM | ACHN > 100 µM | HCT-116 > 100 µM | HOP-62 > 100 µM | M14 > 100 µM | NCI-H23 > 100 µM | NCI-H522 74.8 µM | OVCAR-4 > 100 µM | OVCAR-5 > 100 µM | RPMI-8226 > 100 µM | SK-MEL-5 > 100 µM | SK-OV-3 > 100 µM | SW-620 > 100 µM

CSc1nc2nc(C(O)C(O)C(O)CO)cnc2c(=O)[nH]1 (stereo not drawn)
inactive: 786-0 > 100 µM | A549 > 100 µM | ACHN > 100 µM | HCC 2998 > 100 µM | HCT-116 > 100 µM | HOP-62 > 100 µM | M14 > 100 µM | NCI-H23 > 100 µM | NCI-H522 > 100 µM | OVCAR-5 > 100 µM | RPMI-8226 > 100 µM | SK-MEL-5 > 100 µM | SK-OV-3 > 100 µM | SW-620 > 100 µM | UACC-62 > 100 µM

CC1=NN(C(=O)c2ccc(Cl)cc2)C(=O)/C1=C/c1ccc(Cl)cc1
inactive: 786-0 > 100 µM | A549 > 100 µM | ACHN > 100 µM | HCC 2998 > 100 µM | HCT-116 > 100 µM | HOP-62 > 100 µM | M14 > 100 µM | NCI-H23 > 100 µM | NCI-H522 > 100 µM | OVCAR-4 > 100 µM | OVCAR-5 > 100 µM | RPMI-8226 > 100 µM | SK-MEL-5 > 100 µM | SK-OV-3 > 100 µM | SW-620 > 100 µM | UACC-62 > 100 µM

CCN(CC)CCNC(=O)c1cccc2nc3ccccc3nc12
inactive: 786-0 27 µM | A549 8.05 µM | ACHN 5.06 µM | HCC 2998 14.2 µM | HCT-116 4.16 µM | HOP-62 13.2 µM | M14 18.5 µM | NCI-H23 13.7 µM | NCI-H522 28.5 µM | OVCAR-4 12.8 µM | OVCAR-5 15.8 µM | RPMI-8226 7.64 µM | SK-MEL-5 > 46 µM | SK-OV-3 > 49 µM | SW-620 5.48 µM | UACC-62 18.9 µM

COc1ccc(/C=N\O[Si](C)(C)C(C)(C)C)cc1O[Si](C)(C)C(C)(C)C
inactive: 786-0 16.7 µM | A549 18 µM | ACHN 18 µM | HCC 2998 17.3 µM | HCT-116 15.7 µM | HOP-62 20.2 µM | M14 20 µM | NCI-H23 19.4 µM | OVCAR-4 19 µM | OVCAR-5 22.4 µM | RPMI-8226 17.9 µM | SK-MEL-5 17.3 µM | SK-OV-3 30.6 µM | SW-620 18.7 µM | UACC-62 18.8 µM

CC1OC(=O)N(CCCC=C2SCCCS2)C1=O (stereo not drawn)
inactive: 786-0 > 100 µM | A549 > 100 µM | ACHN > 100 µM | HCT-116 > 100 µM | M14 > 100 µM | NCI-H23 > 100 µM | NCI-H522 > 100 µM | OVCAR-4 > 100 µM | OVCAR-5 > 100 µM | RPMI-8226 > 100 µM | SK-OV-3 > 100 µM | SW-620 > 100 µM | UACC-62 > 100 µM

Cn1c2c(c3ccccc31)CCN(CCCN1CCN(c3cccc(Cl)c3)CC1)C2=O
inactive: 786-0 17.1 µM | A549 49.3 µM | ACHN 10.9 µM | HCT-116 12.3 µM | HOP-62 18.7 µM | M14 17.1 µM | NCI-H23 19.5 µM | NCI-H522 18.8 µM | RPMI-8226 12.2 µM | SK-MEL-5 15.1 µM | SK-OV-3 38.5 µM | SW-620 28 µM | UACC-62 17.4 µM
